From US20250009815A1, “COMPOSITION FOR COMPETITIVE INHIBITION OF PATHOGENS AND RESTORATION OF MICROBIAL ECOLOGICAL BALANCE” (priority 2019, published 2025)
Where two headings read alike, the source gives them in different places.

Experiments:
Type in all cases: cell-based
[1] = tested on: VP03, identified as Gardnerella vaginalis; assay: Zone of inhibition against isolated vaginal pathogen VP03
Source text: (§1) Antimicrobial activities against isolated vaginal pathogens (i.e. VP01, VP02, VP06, VP03, VP04 and VP05) were individually screened and analyzed to conclude and find effective probiotic compositions.
(§2) Different combination of selected probiotics strains with variation in potency were formed and underwent potential antimicrobial effect against isolated vaginal bacterial and fungal pathogens. The extents of zone of inhibition in antimicrobial activity were considered for selection of formulation. The probiotic compositions of the present invention comprise (a) Bacillus coagulans (B.C.); (b) Bacillus subtilis (B.S.); (c) citric acid (CA); (d) gallic acid (GA); (e) beta-cyclodextrin (adhesive); (f) allentoin and (g) a pH regulator (h) lanolin (i) polyethylene glycol (j) a cooling agent etc., and (k) a bioadhesive.
(§3) The zones of inhibition were also examined for each individual components at the same concentration levels as present in the respective combined formulations.

[2] = tested on: VP06, identified as Candida albicans
Source text: as §1, §2, §3
Vaginal swabs obtained from infected patients were grown on Potato Dextrose Agar (PDA) media, and thereafter single colonies were re-streaked on Potato Dextrose Agar plates to obtain fungal isolates, which were designated as VP06, VP02 and VP01. Potato Dextrose Agar is a common medium usually practiced to isolate and culture various fungi only, specifically applicable for yeast or fungi.

[3] = tested on: VP01 (suspected fungal vaginal pathogen); assay: Zone of inhibition against isolated vaginal pathogen VP01
Source text: as §1, §2, §3

[4] = tested on: VP02 (suspected fungal vaginal pathogen); assay: Zone of inhibition against isolated vaginal pathogen VP02
Source text: as §1, §2, §3

[5] = tested on: VP04 (suspected bacterial vaginal pathogen); assay: Zone of inhibition against isolated vaginal pathogen VP04
Source text: as §1, §2, §3

[6] = tested on: VP05 (suspected bacterial vaginal pathogen); assay: Zone of inhibition against isolated vaginal pathogen VP05
Source text: as §1, §2, §3

[7] = Table 1 initial studies, n-i = no zone of inhibition
[8] = Table 5, amounts as in formulation B: B.c 550, B.s 125 million cfu, CA 20, GA 60 mg, n-i = no zone
[9] = Table 6, amounts as in formulation C: B.c 350, B.s 350 million cfu, CA 20, GA 40 mg, n-i = no zone
[10] = Table 8, amounts as in formulation E: B.c 25, B.s 700 million cfu, CA 100, GA 10 mg, n-i = no zone
[11] = Table 4, amounts as in formulation A: B.c 700, B.s 25 million cfu, CA 10, GA 100 mg, n-i = no zone
[12] = Table 7, amounts as in formulation D: B.c 125, B.s 550 million cfu, CA 60, GA 20 mg, n-i = no zone

| Compound | ZONE OF INHIBITION VP03 [1, 7] | ZONE OF INHIBITION VP03 [1, 8] [mm] | ZONE OF INHIBITION VP03 [1, 9] [mm] | ZONE OF INHIBITION VP03 [1, 10] | ZONE OF INHIBITION VP06 [2, 7] | ZONE OF INHIBITION VP06 [2, 11] | ZONE OF INHIBITION VP06 [2, 8] | ZONE OF INHIBITION VP06 [2, 9] | ZONE OF INHIBITION VP06 [2, 12] | ZONE OF INHIBITION VP06 [2, 10] | ZONE OF INHIBITION VP01 [3, 7] [mm] | ZONE OF INHIBITION VP01 [3, 11] | ZONE OF INHIBITION VP01 [3, 8] | ZONE OF INHIBITION VP01 [3, 9] [mm] | ZONE OF INHIBITION VP01 [3, 12] [mm] | ZONE OF INHIBITION VP01 [3, 10] [mm] | ZONE OF INHIBITION VP02 [4, 7] [mm] | ZONE OF INHIBITION VP02 [4, 11] | ZONE OF INHIBITION VP02 [4, 8] | ZONE OF INHIBITION VP02 [4, 9] | also measured |
| --- | --- | --- | --- | --- | --- | --- | --- | --- | --- | --- | --- | --- | --- | --- | --- | --- | --- | --- | --- | --- | --- |
| O=C(O)CC(O)(CC(=O)O)C(=O)O [Citric Acid (CA), citric acid] | 10 mm | 7 | 8 | 9 mm | n-i | n-i | n-i | n-i | n-i | n-i | 41 | n-i | n-i | 23 | 22 | 25 | 30 | n-i | n-i | n-i | ZONE OF INHIBITION VP03 ([1]; Table 4, amounts as in formulation A: B.c 700, B.s 25 million cfu, CA 10, GA 100 mg, n-i = no zone, listed as CA): n-i; ZONE OF INHIBITION VP03 ([1]; Table 4, amounts as in formulation A: B.c 700, B.s 25 million cfu, CA 10, GA 100 mg, n-i = no zone, listed as Citric Acid): unable to cause any inhibitory effect; ZONE OF INHIBITION VP03 ([1]; Table 7, amounts as in formulation D: B.c 125, B.s 550 million cfu, CA 60, GA 20 mg, n-i = no zone, listed as CA): n-i; ZONE OF INHIBITION VP03 ([1]; Table 7, amounts as in formulation D: B.c 125, B.s 550 million cfu, CA 60, GA 20 mg, n-i = no zone, listed as Citric acid): not active; ZONE OF INHIBITION VP02 [4, 12]: n-i; ZONE OF INHIBITION VP02 ([4]; Table 8, amounts as in formulation E: B.c 25, B.s 700 million cfu, CA 100, GA 10 mg, n-i = no zone, listed as CA): n-i; ZONE OF INHIBITION VP02 ([4]; Table 8, amounts as in formulation E: B.c 25, B.s 700 million cfu, CA 100, GA 10 mg, n-i = no zone, listed as Citric acid): not active; ZONE OF INHIBITION VP04 [5, 7]: 11 mm; ZONE OF INHIBITION VP04 [5, 11]: n-i; ZONE OF INHIBITION VP04 [5, 8]: n-i; ZONE OF INHIBITION VP04 [5, 9]: 10 mm; ZONE OF INHIBITION VP04 [5, 12]: 10 mm; ZONE OF INHIBITION VP04 [5, 10]: 11 mm; ZONE OF INHIBITION VP05 [6, 7]: 19 mm; ZONE OF INHIBITION VP05 [6, 11]: n-i; ZONE OF INHIBITION VP05 [6, 8]: n-i; ZONE OF INHIBITION VP05 [6, 9]: 8 mm; ZONE OF INHIBITION VP05 [6, 12]: 8 mm; ZONE OF INHIBITION VP05 [6, 10]: 10 mm |
| O=C(O)c1cc(O)c(O)c(O)c1 [Gallic Acid (GA), gallic acid] | n-i | 5 | 7 | n-i | 9 mm | n-i | n-i | n-i | N-i | n-i | 35 | 19 mm | 17 mm | 16 | 16 | 13 | 35 | 16 mm | 15 mm | 15 mm | ZONE OF INHIBITION VP03 [1, 11]: 8 mm; ZONE OF INHIBITION VP03 ([1]; Table 7, amounts as in formulation D: B.c 125, B.s 550 million cfu, CA 60, GA 20 mg, n-i = no zone, listed as GA): n-i; ZONE OF INHIBITION VP03 ([1]; Table 7, amounts as in formulation D: B.c 125, B.s 550 million cfu, CA 60, GA 20 mg, n-i = no zone, listed as Gallic Acid): not active; ZONE OF INHIBITION VP02 [4, 12]: 18 mm; ZONE OF INHIBITION VP02 ([4]; Table 8, amounts as in formulation E: B.c 25, B.s 700 million cfu, CA 100, GA 10 mg, n-i = no zone, listed as GA): n-i; ZONE OF INHIBITION VP02 ([4]; Table 8, amounts as in formulation E: B.c 25, B.s 700 million cfu, CA 100, GA 10 mg, n-i = no zone, listed as Gallic Acid): not active; ZONE OF INHIBITION VP04 [5, 7]: 9 mm; ZONE OF INHIBITION VP04 [5, 11]: 10 mm; ZONE OF INHIBITION VP04 [5, 8]: 10 mm; ZONE OF INHIBITION VP04 [5, 9]: 9 mm; ZONE OF INHIBITION VP04 [5, 12]: 9 mm; ZONE OF INHIBITION VP04 [5, 10]: 7 mm; ZONE OF INHIBITION VP05 [6, 7]: 11 mm; ZONE OF INHIBITION VP05 [6, 11]: 7 mm; ZONE OF INHIBITION VP05 [6, 8]: 7 mm; ZONE OF INHIBITION VP05 [6, 9]: 6 mm; ZONE OF INHIBITION VP05 [6, 12]: 6 mm; ZONE OF INHIBITION VP05 [6, 10]: 6 mm |
